Common to all, as to type: cell-based
One series has as its system CNS SF-539. Put plainly: COMPARE screening (NCI human cancer cell line screen), cytotoxicity GI50. In outline:
(§1)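 Five tenfold concentrations, 100 down to 0.01 μM, are applied for 48 h; growth is measured by sulforhodamine B absorbance against control.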

The test system of the next series is colon HCT-116. The series is described as above. Summed up:
as §1

The next series deals with lung HOP-62. The description is as above. Summed up:
as §1

The next series has as its system melanoma UACC-62. The description is as above. Summed up:
as §1

The subject of another series is ovarian OVCAR-3. Described as above. Summed up:
as §1

The next series concerns prostate DU-145. The series is described as above. Summed up:
as §1

For a further series, the system named is renal SN12C. The series is described as above. Summed up: as §1
The subject of a further series is breast MDA-MB-435. The description is as above.
Series [1] has as its system all human cancer cell lines successfully tested. Put plainly: NCI screen mean graph midpoint (MGM) for growth inhibition. In outline: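 NCI60 panel cells exposed to compound at 100, 10, 1, 0.1 and 0.01 μM for 48 h, then sulforhodamine B staining. Percentage growth versus control plotted against log concentration; MGM is the midpoint across all lines tested.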
Setting [2] is: Table 1, average GI50 of all cell lines tested (approximately 55), test range 10^−8 to 10^−4 molar.
Where [3] appears, read: CNS SF-539, concentration corresponding to 50% growth inhibition, read-out: cytotoxicity (GI50 in μM) CNS SF-539.
Setting [4] is: colon HCT-116, concentration corresponding to 50% growth inhibition, read-out: cytotoxicity (GI50 in μM) colon HCT-116.
The mark [5] stands for this setting: lung HOP-62, concentration corresponding to 50% growth inhibition, read-out: cytotoxicity (GI50 in μM) lung HOP-62.
The mark [6] stands for this setting: melanoma UACC-62, concentration corresponding to 50% growth inhibition, read-out: cytotoxicity (GI50 in μM) melanoma UACC-62.
The mark [7] stands for this setting: ovarian OVCAR-3, concentration corresponding to 50% growth inhibition, read-out: cytotoxicity (GI50 in μM) ovarian OVCAR-3.
Where [8] appears, read: prostate DU-145, concentration corresponding to 50% growth inhibition, read-out: cytotoxicity (GI50 in μM) prostate DU-145.
Setting [9] is: renal SN12C, concentration corresponding to 50% growth inhibition, read-out: cytotoxicity (GI50 in μM) renal SN12C.
[10] abbreviates: breast MDA-MB-435, concentration corresponding to 50% growth inhibition, read-out: cytotoxicity (GI50 in μM) breast MDA-MB-435.
Where [11] appears, read: all human cancer cell lines successfully tested.

Molecules are shown by their SMILES. Read-outs that look alike come from different tables or passages of the source.

As a reminder, the GI50 is the concentration giving 50% growth inhibition.

Description for breast MDA-MB-435: COMPARE screening. The compounds described herein were examined for antiproliferative activity against the human cancer cell lines in the National Cancer Institute screen (COMPARE screening), in which the activity of each compound was evaluated with approximately 55 different cancer cell lines of diverse tumor origins. […] Therefore, the MGM value represents an overall assessment of toxicity of the compound across numerous cell lines.

For `COc1ccc2c(c1)C(=O)c1c-2n(CCCN2CCOCC2)c(=O)c2ccccc12` [Compound 5bk], the GI50 was 1.95 µM with CNS SF-539; 1.26 µM with colon HCT-116; 1.41 µM in the series on lung HOP-62; 1.58 µM in the series on melanoma UACC-62; 2.69 µM with ovarian OVCAR-3; 2.29 µM in the series on prostate DU-145. Besides, the concentration for 50% growth inhibition (GI50) with renal SN12C was 4.07 µM; in the series on breast MDA-MB-435, 4.68 µM. For the same compound, in [1] (setting [2]), the “MGM (mean graph midpoint for growth inhibition)” value came out at 2.70 ± 0.125 µM.

In the case of `Cl.NCCCCCCn1c2c(c3ccccc3c1=O)C(=O)c1ccccc1-2` [Compound 5ap, 6-(6-Aminohexyl)-5,6-dihydro-5,11-diketo-11H-indeno[1,2-c]isoquinoline Hydrochloride], the concentration for 50% growth inhibition (GI50) in the series with CNS SF-539 (Homo sapiens, CNSSF-539, read-out: cytotoxicity (GI50) CNS SF-539) was 1.23 µM; in the series on colon HCT-116 (Homo sapiens, HCT-116, read-out: cytotoxicity (GI50) colon HCT-116) it was 0.912 µM; in the series on lung HOP-62 (Homo sapiens, HOP-62, read-out: cytotoxicity (GI50) lung HOP-62), 1.29 µM; in the series with melanoma UACC-62 (Homo sapiens, UACC-62, read-out: cytotoxicity (GI50) melanoma UACC-62) it was 1.62 µM; with ovarian OVCAR-3 (Homo sapiens, OVCAR-3, read-out: cytotoxicity (GI50) ovarian OVCAR-3) it was 2 µM; with prostate DU-145 (Homo sapiens, DU-145, read-out: cytotoxicity (GI50) prostate DU-145), 0.603 µM. The GI50 in the series on renal SN12C (Homo sapiens, SN12C, read-out: cytotoxicity (GI50) renal SN12C) amounted to 1.32 µM; in the series on breast MDA-MB-435 (Homo sapiens, MDA-MB-435, read-out: cytotoxicity (GI50) breast MDA-MB-435), 2.04 µM. Moreover, the MGM (mean GI50 across cell lines) in series [1] (setting [2]) is 1.32 µM.

In the case of `COc1ccc2c(c1)C(=O)c1c-2n(CCCNCCO)c(=O)c2ccccc12.Cl` [Compound 5bn], the GI50 with CNS SF-539 was 0.112 µM; in the series with colon HCT-116 it was 0.044 µM; in the series on lung HOP-62, 0.026 µM; in the series on melanoma UACC-62, 0.55 µM; in the series with ovarian OVCAR-3, 0.417 µM; with prostate DU-145, 0.055 µM. Moreover, the values for the GI50 with renal SN12C and in the series on breast MDA-MB-435 were 0.158 µM and 0.389 µM, respectively. Also, the “MGM (mean graph midpoint for growth inhibition)” value in series [1] (setting [2]) came to 0.124 ± 0.014 µM.

In the case of `CC(C)(C)OC(=O)N(CCCCN(CCCn1c2c(c3ccccc3c1=O)C(=O)c1ccccc1-2)C(=O)OC(C)(C)C)CCCn1c2c(c3ccccc3c1=O)C(=O)c1ccccc1-2` [Compound 13d, Bis-1,4-{(5,6-dihydro-5,11-diketo-11H-indeno[1,2-c]isoquinoline)-(6-propyl-tert-BOCamino)}butane], the GI50 in the series on CNS SF-539 (setting [3]) turned out to be 8.13 µM; with colon HCT-116 (setting [4]) it was 1.91 µM; in the series with lung HOP-62 (setting [5]), 11 µM; in the series with melanoma UACC-62 (setting [6]), 93.3 µM; in the series with ovarian OVCAR-3 (setting [7]), 69.2 µM; with prostate DU-145 (setting [8]), 47.9 µM. The results for the GI50 in the series with renal SN12C (setting [9]) and in the series on breast MDA-MB-435 (setting [10]) were 36.3 µM and 69.2 µM, respectively. This compound had an MGM (mean GI50 across cell lines) in series [1] (setting [11]) of 35.5 µM.

Consider `O=C1c2ccccc2-c2oc(=O)c3cc4c(cc3c21)OCO4` [Compound 4b], for which the GI50 in the series on CNS SF-539 is > 100 µM; in the series with colon HCT-116, > 100 µM; in the series with lung HOP-62, 53.7 µM; in the series on melanoma UACC-62, > 100 µM; in the series with ovarian OVCAR-3 it was > 100 µM; in the series on prostate DU-145, > 100 µM. The GI50 in the series on renal SN12C and in the series with breast MDA-MB-435 was > 100 µM in each case. This compound had an MGM (mean GI50 across cell lines) in series [1] (setting [2]) of 57.5 µM.

For the compound `Cl.O=C1c2ccccc2-c2c1c1ccc([N+](=O)[O-])cc1c(=O)n2CCCNCCO` [Compound 5bl], the GI50 in the series with CNS SF-539 is > 100 µM; with colon HCT-116, 0.027 µM; in the series on lung HOP-62, 0.031 µM; with melanoma UACC-62, 0.2 µM; in the series with ovarian OVCAR-3, 1.35 µM; with prostate DU-145 it was > 100 µM. Also, the 50% growth inhibitory concentration (GI50) with renal SN12C was 0.229 µM; in the series on breast MDA-MB-435, 1.07 µM. For the same compound, in [1] (setting [2]), the “MGM (mean graph midpoint for growth inhibition)” value came out at 0.296 ± 0.067 µM.

For the compound `CC(C)(C)OC(=O)NCCCCCCCCCCCCn1c2c(c3ccccc3c1=O)C(=O)c1ccccc1-2` [Compound 5ak, 6-(12′-tert-BOC-Aminododecyl)-5,6-dihydro-5,1-dioxo-11H-indeno[1,2-c]isoquinoline], the GI50 in the series on CNS SF-539 is 20.4 µM; with colon HCT-116, > 100 µM; in the series with lung HOP-62, 32.4 µM; in the series on melanoma UACC-62, 27.5 µM; with ovarian OVCAR-3, > 100 µM; in the series with prostate DU-145, 91.2 µM. Also, the GI50 in the series on renal SN12C and in the series on breast MDA-MB-435 was > 100 µM each time. The same compound registered an MGM (mean GI50 across cell lines) in series [1] (setting [2]) of 51.3 µM.

On to `COc1cc2c3c(n(CCN4CCOCC4)c(=O)c2cc1OC)-c1ccccc1C3=O` [Compound 5h], for which the concentration for 50% growth inhibition (GI50) is > 100 µM with CNS SF-539; 60.3 µM in the series on colon HCT-116; 89.1 µM with lung HOP-62; 56.2 µM with melanoma UACC-62; > 100 µM in the series with ovarian OVCAR-3; > 100 µM in the series with prostate DU-145. For the same compound, the concentration for 50% growth inhibition (GI50) with renal SN12C and in the series with breast MDA-MB-435 was > 100 µM in each case. For the same compound, the MGM (mean GI50 across cell lines) in series [1] (setting [2]) is listed as 741 µM.

For the compound `CC(C)(C)OC(=O)NCCCCCCCCCCCn1c2c(c3ccccc3c1=O)C(=O)c1ccccc1-2` [Compound 5aj, 6-(11′-tert-BOC-Anminoundecyl)-5,6-dihydro-5,11-dioxo-11H-indeno[1,2-c]isoquinoline], the concentration for 50% growth inhibition (GI50) in the series on CNS SF-539 worked out at 29.5 µM; in the series with colon HCT-116 it was 35.5 µM; in the series with lung HOP-62 it was 20.9 µM; in the series on melanoma UACC-62, 24 µM; with ovarian OVCAR-3, 70.8 µM; in the series on prostate DU-145 it was 91.2 µM. For the same compound, the GI50 in the series on renal SN12C and in the series on breast MDA-MB-435 was > 100 µM throughout. Further, the “MGM (mean graph midpoint for growth inhibition)” value in series [1] (setting [2]) turned out to be 42.6 ± 5.35 µM.

As for `CC(C)(C)OC(=O)N(CCCN(CCn1c2c(c3ccccc3c1=O)C(=O)c1ccccc1-2)C(=O)OC(C)(C)C)CCn1c2c(c3ccccc3c1=O)C(=O)c1ccccc1-2` [Compound 13a, Bis-1,3-{(5,6-dihydro-5,11-diketo-11H-indeno[1,2-c]isoquinoline)-(6-ethyl-tert-BOCamino)}propane], the GI50 in the series with CNS SF-539 (setting [3]) was > 50.1 µM; in the series on colon HCT-116 (setting [4]), 22.9 µM; with lung HOP-62 (setting [5]) it was 22.4 µM; in the series on melanoma UACC-62 (setting [6]) it was > 50.1 µM; with ovarian OVCAR-3 (setting [7]) it was 21.4 µM; in the series with prostate DU-145 (setting [8]) it was > 50.1 µM. Besides, the concentration for 50% growth inhibition (GI50) in the series with renal SN12C (setting [9]) and in the series with breast MDA-MB-435 (setting [10]) was > 50.1 µM each time. The MGM (mean GI50 across cell lines) in series [1] (setting [11]) stood at 33.9 µM.

For the compound `COc1cc2c3c(n(CCNCCCNCCn4c5c(c6cc(OC)c(OC)cc6c4=O)C(=O)c4ccccc4-5)c(=O)c2cc1OC)-c1ccccc1C3=O.O=C(O)C(F)(F)F.O=C(O)C(F)(F)F` [Compound 14k, Bis-1,3-{(5,6-dihydro-5,11-diketo-2,3-dimethoxy-11H-indeno[1,2-c]isoquinoline)-6-ethylamino}propane Bis{trifluoroacetate)], the GI50 worked out at 0.17 µM in the series with CNS SF-539 (setting [3]); 0.045 µM in the series with colon HCT-116 (setting [4]); 0.068 µM in the series with lung HOP-62 (setting [5]); 1.23 µM in the series on melanoma UACC-62 (setting [6]); 0.269 µM in the series with ovarian OVCAR-3 (setting [7]); 0.209 µM in the series on prostate DU-145 (setting [8]). The GI50 with renal SN12C (setting [9]) amounted to 0.028 µM; with breast MDA-MB-435 (setting [10]) it was 0.813 µM. The MGM (mean GI50 across cell lines) in series [1] (setting [11]) was 0.562 µM.

Take `COc1cc2c3c(n(CCCN4CCN(C)CC4)c(=O)c2cc1OC)-c1cc2c(cc1C3=O)OCO2` [Compound 5t]: the GI50 in the series on CNS SF-539 came out at 17.8 µM; with colon HCT-116 it was 1.48 µM; with lung HOP-62, 18.2 µM; in the series with melanoma UACC-62, 15.1 µM; in the series with ovarian OVCAR-3, 15.1 µM; in the series with prostate DU-145, 10.7 µM. Besides, the figures for the concentration for 50% growth inhibition (GI50) with renal SN12C and in the series on breast MDA-MB-435 were 11.5 µM and > 100 µM, respectively. The MGM (mean GI50 across cell lines) in [1] (setting [2]) worked out at 12.0 µM.

In the case of `O=C1c2ccccc2-c2c1c1ccccc1c(=O)n2CCNCCn1c2c(c3ccccc3c1=O)C(=O)c1ccccc1-2` [Compound 12a, Bis{(5,6-dihydro-5,11-diketo-11H-indeno[1,2-c]isoquinoline)-6-ethyl}amine], the 50% growth inhibitory concentration (GI50) with CNS SF-539, with colon HCT-116, with lung HOP-62, in the series with melanoma UACC-62, in the series with ovarian OVCAR-3 and in the series with prostate DU-145 was > 25.1 µM throughout. For the same compound, the concentration for 50% growth inhibition (GI50) in the series on renal SN12C and in the series on breast MDA-MB-435 was > 25.1 µM throughout. In addition, the MGM (mean GI50 across cell lines) in [1] (setting [11]) is reported as 18.2 µM.

Source of the values: patent publication US9796753B2, “N-substituted indenoisoquinolines and syntheses thereof” (Purdue Research Foundation, priority 2005, dated 2017).
